Reference: patent publication US8871726B2, “C-aryl glucoside derivative, preparation method therefor, and use thereof” (Shanghai Allist Pharmaceuticals, Inc., priority 2010, dated 2014)

Tests used:
normal rat = assay: Effect on the urine glucose excretion of the normal rat; format: in vivo; settings: normal SD rats, single intragastric oral administration, then glucose 2 g/kg; in comparison with the blank control, P<0.01, dosage-dependent
From the text: The drug effect of promoting the urine glucose excretion can be determined according to the conventional assay. One preferable evaluation assay is to detect the effect of the present compound on the urine glucose excretion of the normal rat. The assay can be conducted as follows. Thirty 7-week-old male SD rats (about 200 g) are used in the assay. The tested compound having a purity of 97.8% is formulated with 0.75% CMC-Na. […] The SD rats are acclimatized for 7 days, and then placed in the metabolic cages. The rats are fasted overnight (18 hr) under the free access to water. The basic urine samples are collected, and then thirty rats are weighed and grouped randomly into five groups, six rats per group. The rats are administered with the tested compounds or the positive control drug at low dosage, medium dosage, or high dosage. Fifteen minutes after the administration, the rats are intragastrically administrated with 50% glucose solution (2 g/kg). For ensuring a complete collection of the 24-hour urine, the rats are immediately placed in the metabolic cage after the administration of the tested compounds or the positive control drug. One hour after the administration of the glucose solution, the feeds are supplied to the rats. The urines after the administration of the tested compounds or the positive control drug are collected for 24 hours, and then the urine volumes are calculated and the urine glucose concentrations are detected.
The data are analyzed with the software SPSS 12.0, and the quantized data are expressed in “average±standard deviation”. Multiple sets of data are compared according to the analysis of variance (One-way ANOVA). P<0.05 represents statistical difference.
Thirty 7-week-old male SD rats (about 200 g) were used. The compound of Example 2 having a purity of 97.8% was chose as the present compound and formulated with 0.75% CMC-Na. […] The SD rats were acclimatized for 7 days, and then placed in the metabolic cages. The rats were fasted overnight (18 hr) under the free access to water. The basic urine samples were collected, and then thirty rats were weighed and grouped randomly into five groups, six rats per group.
Fifteen minutes after the administration, the rats were intragastrically administrated with 50% glucose solution (2 g/kg). For ensuring a complete collection of the 24-hour urine, the rats were immediately placed in the metabolic cage after the administration of the tested compounds or the positive control drug. […] The urines after the administration of the tested compounds or the positive control drug were collected for 24 hours, and then the urine volumes were calculated and the urine glucose concentrations were detected.
The data were analyzed with the software SPSS 12.0, and the quantized data were expressed in “average±standard deviation”. […]

human SGLT-1 = target: T1, human SGLT-1 (Homo sapiens, UniProt P13866); assay: Inhibitory effect on human SGLT-1 (14C-methyl-a-D-glucopyranoside uptake in transfected NIH3T3 cells); format: cell-based; settings: NIH3T3 cells expressing human SGLT-1; read-out: IC50 value for inhibiting the human SGLT-1
T1 sequence (P13866 1-664): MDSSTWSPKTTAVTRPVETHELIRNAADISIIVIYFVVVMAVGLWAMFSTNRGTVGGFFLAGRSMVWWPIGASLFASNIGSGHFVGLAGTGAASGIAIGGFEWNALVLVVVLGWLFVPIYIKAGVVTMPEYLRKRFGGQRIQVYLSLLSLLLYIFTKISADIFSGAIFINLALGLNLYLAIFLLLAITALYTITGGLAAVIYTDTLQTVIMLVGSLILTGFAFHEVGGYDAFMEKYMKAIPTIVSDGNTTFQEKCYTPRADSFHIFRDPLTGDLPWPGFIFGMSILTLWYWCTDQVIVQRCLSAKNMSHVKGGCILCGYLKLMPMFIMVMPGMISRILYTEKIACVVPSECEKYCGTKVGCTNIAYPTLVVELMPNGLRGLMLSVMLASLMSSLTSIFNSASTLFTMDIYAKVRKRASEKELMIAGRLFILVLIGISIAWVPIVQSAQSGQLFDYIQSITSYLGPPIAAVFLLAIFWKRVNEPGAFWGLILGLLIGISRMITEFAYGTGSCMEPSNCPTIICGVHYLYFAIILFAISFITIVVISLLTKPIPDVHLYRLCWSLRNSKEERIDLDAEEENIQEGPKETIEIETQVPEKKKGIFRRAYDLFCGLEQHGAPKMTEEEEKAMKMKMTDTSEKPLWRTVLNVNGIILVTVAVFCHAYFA
Method: (§1) 0.2% gelatin was plated on a 24-well plate, and the plate was kept overnight. The plate was washed with PBS once before use. The NIH3T3 cells expressing human SGLT-1 by transfection were inoculated into the 24-well plate in 100,000 cells per well and 1 mL culture medium per well. On the third day, the culture medium was changed once, and simultaneously sodium butyrate was added thereto with a final concentration of 2 mM. The cells were washed with KRH-Na^+ (500 μL) twice, and then incubated with KRH-Na^+ (500 μL) for 30 minutes. The cells were then treated with 200 μL of KRH-Na^+ containing the compound of Example 2, and 50 μL of an uptake buffer (KRH-Na^+ plus methyl-a-D-[U-14C] glucopyranoside and 1 mM methyl-a-D-glucopyranoside). The cells were washed with 500 μL wash buffer thrice with the operation on ice, and baked overnight. The cells were lysed with 200 μL of 0.25N NaOH at 4° C. for 1 hr. The lysate was removed into an EPPENDORF tube, and centrifuged at 4° C. under 12000 g for 5 mins. […] of supernatant was placed in a 2 mL EPPENDORF tube, and 1.7 mL of scintillation cocktail was added thereto. The mixture was shaked vigorously, and then counted. The inhibition rate of the compound of Example 2 at each of concentrations on the transporting activity was calculated.
(§2) IC50 value could be determined by nonlinear curve fitting of sample activities vs. sample concentrations. […]

human SGLT-2 = target: T2, human SGLT-2 (Homo sapiens, UniProt P31639); assay: Inhibitory effect on human SGLT-2 (14C-methyl-a-D-glucopyranoside uptake in transfected NIH3T3 cells); format: cell-based; settings: NIH3T3 cells expressing human SGLT-2; read-out: IC50 value for inhibiting the human SGLT-2
T2 construct: expressed in transfected cells; host or cells: NIH3T3 cells
T2 sequence (P31639 1-672): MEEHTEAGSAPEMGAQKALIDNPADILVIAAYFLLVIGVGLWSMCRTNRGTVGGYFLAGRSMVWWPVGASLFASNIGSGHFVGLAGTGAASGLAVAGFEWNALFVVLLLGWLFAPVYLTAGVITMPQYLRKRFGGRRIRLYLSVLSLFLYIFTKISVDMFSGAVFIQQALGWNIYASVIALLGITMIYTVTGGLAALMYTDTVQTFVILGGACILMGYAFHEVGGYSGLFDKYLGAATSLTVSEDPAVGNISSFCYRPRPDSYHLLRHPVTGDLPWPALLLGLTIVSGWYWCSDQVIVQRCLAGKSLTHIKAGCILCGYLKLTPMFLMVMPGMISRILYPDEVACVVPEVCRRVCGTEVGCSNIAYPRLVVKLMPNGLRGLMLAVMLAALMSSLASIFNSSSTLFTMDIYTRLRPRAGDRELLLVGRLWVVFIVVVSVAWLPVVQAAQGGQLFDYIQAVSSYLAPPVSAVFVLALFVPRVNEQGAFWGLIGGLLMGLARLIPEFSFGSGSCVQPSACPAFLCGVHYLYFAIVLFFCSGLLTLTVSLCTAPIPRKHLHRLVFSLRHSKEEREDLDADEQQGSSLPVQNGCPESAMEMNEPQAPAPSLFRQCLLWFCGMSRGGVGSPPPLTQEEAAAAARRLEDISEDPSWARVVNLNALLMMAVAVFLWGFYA
Method: as §1, with “SGLT-2” for “SGLT-1”
as §2

Compound | 24-hour urine glucose masses (normal rat) | 24-hour urine volumes (normal rat) | IC50 (human SGLT-1) | IC50 (human SGLT-2)
CCOc1ccc(Cc2cc([C@@H]3O[C@H](CO)[C@@H](O)[C@H](O)[C@H]3O)ccc2Cl)cc1 [Dapagliflozin, reference compound] | remarkably increased | remarkably increased | – | –
CS[C@H]1O[C@@H](c2ccc(C)c(Cc3ccc(-c4ccc(F)cc4)s3)c2)[C@H](O)[C@@H](O)[C@@H]1O [Example 2, (2S,3R,4R,5S,6R)-2-[3-((5-(4-fluorophenyl)thienyl)-2-methylene)-4-methylphenyl)-6-methylthio-tetrahydropyran-3,4,5-triol] | remarkably increased | remarkably increased | 28.7 µM | 0.000172 µM
